Measurements from patent publication US20230242616A1, “CHEMOKINE-SELECTIVE CXCR4 ECTODOMAIN-DERIVED (POLY)PEPTIDE” (Ludwig-Maximilians-Universität München, priority 2020, published 2023).

Tests used:
mouse MIF = mouse MIF (Mus musculus, UniProt P34884); assay: Dot blot with TAMRA-msR4M-L1, human versus mouse MIF; assay type: binding
Experimental: Dot blot. […] Non-specific binding was blocked with Tris-buffered saline (TBS), pH 7.4, containing 0.1% Tween-20 (TBS-T) and 1% BSA. […] Fluorescence intensities were measured at 600 nm using an Odyssey® Fc imager (LICOR Biosciences, Bad Homburg, Germany). The total intensity of each spot was automatically corrected by the individual background signal.

[1] = molecular target: T1, human CXCR4 (CXCL12/CXCR4) (Homo sapiens, UniProt P48061); assay: CXCR4-specific signaling in yeast (lacZ reporter), CXCL12-triggered; assay type: cell-based; conditions: 2 μM CXCL12
T1 construct: expressed in transfected cells; host or cells: S. cerevisiae strain CY12946
T1 sequence (P48061 22-89 limits assumed): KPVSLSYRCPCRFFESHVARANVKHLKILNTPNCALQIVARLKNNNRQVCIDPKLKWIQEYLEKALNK
Experimental: CXCR4-specific signaling in a yeast-based cell system. […] Briefly, yeast transformants stably expressing human CXCR4 were grown overnight at 30° C. in yeast nitrogen base selective medium (Formedium, UK). Cells were diluted to an OD600 of 0.2 and grown to an OD600 of 0.3-0.6. […] OD600 was measured and activation of CXCR4 signaling quantified by β-galactosidase activity using a commercial BetaGlo Kit (Promega, Mannheim, Germany).

[2] = tested on: primary human monocyte-derived macrophages; assay: Dil-LDL uptake / foam cell formation, MIF-mediated; assay type: cell-based
Experimental: Dil-LDL uptake/foam cell formation. […] After washing with imaging solution (MEM without phenol red containing 30 mM HEPES, 0.5 g/L NaHCO3, pH 7.4, and 0.2% BSA), cells were exposed to 50 μg/mL 1,1′-dioctadecyl-3,3,3′3′-tetra-methylindocarbocyanine-labeled LDL (Dil-LDL) for 30 min at 4° C. followed by incubation at 37° C. for 20 min. Cells were washed with ice-cold imaging solution (pH 3.5), fixed, and counter-stained with Hoechst 33258.

[3] = Blood cell counts, lipid levels and body weight of treated mice; assay type: in vivo, mouse
From the text: Blood cell counts, triglycerides and cholesterol levels. […] APC-conjugated anti-CD19, FITC-conjugated anti-CD3.

[4] = tested on: Apoe−/− mice with established plaques; assay: Regression model of atherosclerosis; assay type: in vivo, mouse
From the text: Control mice received saline. Mice were sacrificed after 9 weeks and vessel tissues prepared for plaque, cell, and macrophage staining. A. C, E, staining of aortic root sections with oil red O (ORO), hematoxylin eosin (HE), and anti-CD68, respectively. G, staining of aortic arch with HE. B, D, F, H, respective quantifications from 14 mice per group. Statistics: two-tailed, unpaired Mann-Whitney test; *, P<0.05; **, P<0.01.
To further test the therapeutic applicability of msR4M-L1, an in vivo test in a “regression setting” was applied to mimic the patient situation, who is typically seen by a physician only when symptoms occur. The real-life situation is thus one in which preformed plaques already exist, when a patient starts treatment. A regression model therefore better mimics the situation in patient with pre-existing atherosclerotic disease.
In a pilot study, atherogenic ApoE−/− mice were put on Western diet for 4.5 wks.

[5] = tested on: human monocyte-derived macrophages; conditions: read-out: IC50 of MIF-triggered Dil-oxLDL uptake; lower threshold of effect size roughly 50%

In the case of `CC[C@H](C)[C@H](NC(=O)[C@H](Cc1ccc(O)cc1)NC(=O)[C@H](CCCNC(=N)N)NC(=O)[C@H](CC(=O)O)NC(=O)CCCCCCCCCCCNC(=O)CCCCCNC(=O)[C@H](CCCCN)NC(=O)[C@H](CS)NC(=O)[C@H](CC(C)C)NC(=O)[C@H](Cc1ccccc1)NC(=O)[C@H](CC(N)=O)NC(=O)CNC(=O)[C@H](Cc1ccccc1)NC(=O)[C@H](Cc1ccc(O)cc1)NC(=O)[C@H](Cc1c[nH]c2ccccc12)NC(=O)[C@H](CC(N)=O)NC(=O)[C@H](C)NC(=O)[C@@H](NC(=O)[C@H](C)NC(=O)[C@@H](N)CC(=O)O)C(C)C)C(=O)N[C@@H](CS)C(=O)N[C@@H](CC(=O)O)C(=O)N[C@@H](CCCNC(=N)N)C(=O)N[C@@H](Cc1ccccc1)C(=O)N[C@@H](Cc1ccc(O)cc1)C(=O)N1CCC[C@H]1C(=O)N[C@@H](CC(N)=O)C(=O)N[C@@H](CC(=O)O)C(=O)N[C@@H](CC(C)C)C(=O)N[C@@H](Cc1c[nH]c2ccccc12)C(=O)N[C@H](C(N)=O)C(C)C` [msR4M-L1], the “binding to human versus mouse MIF on dot blot” value (mouse MIF) is reported as “binds equally well to human and mouse MIF”, the “effect on CXCL12/CXCR4-elicited signaling” value [1] is reported as “remained unaffected” and the “effect on MIF-mediated Dil-LDL uptake” value ([2]; 80 nM MIF) is reported as “dose-dependently inhibited”. The “inhibitory capacity compared with established MIF inhibitors” value ([2]; Dil-LDL uptake) was “slightly better than that of ISO-1, but lower than that or NIH/IIID.9”, the Leukocytes ([3]; Apoe−/− mice, HFD 4.5 weeks) was 4632 ± 286 per μL and the Lymphocytes ([3]; Apoe−/− mice, HFD 4.5 weeks) was 2347 ± 50 per μL. For the same molecule, the Monocytes ([3]; Apoe−/− mice, HFD 4.5 weeks) was 552 ± 51 per μL, the Neutrophils ([3]; Apoe−/− mice, HFD 4.5 weeks) was 1897 ± 46 per μL and the Triglycerides ([3]; Apoe−/− mice, HFD 4.5 weeks) was 156.7 ± 3.8 mg/dL. For the same molecule, the Weight ([3]; Apoe−/− mice, HFD 4.5 weeks) was 22.3 ± 0.2 g, the Cholesterol ([3]; Apoe−/− mice, HFD 4.5 weeks, means ± SD) was 647.4 ± 19.2 mg/dL and the “effect on body weight, plasma total cholesterol, triglyceride levels, blood leukocyte counts” value ([3]; mouse, in vivo) was “did not observe any effect”. The “plaque load, pilot regression study” value ([4]; 4-5 mice per group, 50 μg/mouse, 3× per week) was “decreased plaque load (trend)”, the “atherosclerotic plaques (ORO and HE aortic root, HE aortic arch), regression study” value ([4]; 14 mice per group) was “leads to a regression of atherosclerotic plaques” and the “intralesional inflammation, CD68+ macrophage area” value ([4]; 14 mice per group) was “reduced”. For the same molecule, the IC50 [5] was ~100 nM.
